Laboratory results: patent US20080085874A1, “SMALL MOLECULE POTENTIATOR OF HORMONAL THERAPY FOR BREAST CANCER” (The Regents of the University of California, priority 2006, published 2008)
Structures can show the parent of a compound that is named as a salt. Where two headings read alike, the source gives them in different places. Blank lines part the entries; values can stand above or below the molecule they belong to.

How the values were obtained:
Bcl-2 = assay: Immunoblotting of Bcl-2 protein in MCF-7 cells; assay type: cell-based, human; conditions: 72 hours
Protocol: (§1) Immunoblotting. MCF-7 cells were grown in 100 mm dishes and treated with ligands in triplicate. […] Whole cell extracts were separated by SDS-PAGE, transferred to a nitrocellulose membrane, and immunoblotted using standard methods with the following antibodies: ERα, Bik, Bcl-2, and β-tubulin (all from Santa Cruz Biotechnology, Santa Cruz, Calif.) and cyclin D1 (Zymed, San Francisco, Calif.).

[1] = tested on: endogenous ERα at estrogen response element (ERE); assay: ERE-Luc luciferase reporter gene transfection assay; conditions: for ERE-Luc transcription: 24 hours
Protocol: MCF-7 cells growing in 12-well dishes were transfected with ERE-Luc and β-galactosidase reporter gene using Lipofectamine 2000 transfection reagent (Invitrogen) according to manufacturer's instructions. […] Five hours after transfection, cells were treated in triplicate with ligands and harvested 24 hours later using a lysis buffer containing 100 MM TrisHCl, 1% Triton-X100 and 1.μ/ml dithiothreitol. Reporter gene activity was measured using assay kits for Luciferase (Promega, Madison, Wis.) and β-galactosidase (Tropix, Bedford, Mass.), according to manufacturer's instructions.

[2] = tested on: Ishikawa endometrial adenocarcinoma cells; assay: Cell proliferation assay in endometrial cells; assay type: cell-based; conditions: 7 days, 750 μM VPA; for cell numbers / proliferation: 10 nM OH-Tam, 100 pM or 1 nM E2
Excerpt: (§2) Cell Culture and Ligands. MCF-7 cells were provided by C. Walker (MD Anderson Cancer Center, Houston, Tex.) and were routinely cultured in IMEM (Invitrogen, Grand Island, N.Y.) with 10% fetal calf serum (FBS) (Hyclone, Logan, Utah). Ishikawa cells were also provided by C. Walker and cultured in DMEM/Ham's F12 with 10% FBS. T47-D cells were obtained from ATCC and were routinely cultured in DMBM (Invitrogen) plus 10% FBS. ZR-75-1 cells were provided by B. Hahn (University of California, San Francisco) and were routinely cultured in RPMI (Invitrogen) plus 10% PBS. MCF-7/neo and MCF-7/HER2 (clone 18) cells were also obtained from B. Hahn and cultured in DMEM plus 10% FBS. MCF-7aro cells were provided by S. Chen (Beckham Research Institute of the City of Hope) and routinely grown in DMEM/Ham's F12 plus 10% FBS. For all experiments cells were switched to phenol red-free media containing 5% charcoal/dextran-stripped FBS (Hyclone) for 3-5 days prior to start of the experiment. Cells were treated with ligands in media containing 2-5% stripped PBS for the indicated times.
(§3) Cell Proliferation Assays. Cells growing in 24-well dishes were treated with ligands in triplicate for the indicated times. Cells were trypsinized and counted electronically with a Coulter Counter (Coulter Electronics, Hialeah, Fla.). Alternatively, cell proliferation was measured using a fluorescent DNA-binding assay, CyQUANT (Invitrogen) in which cells were treated with ligands in triplicate in 96-well plates for the indicated times and assayed according to the manufacturer's instructions.

MCF-7 cells [3] = assay: Cell proliferation assay (Coulter Counter or CyQUANT fluorescent DNA-binding assay) in MCF-7 cells; assay type: cell-based, human; conditions: for E2-stimulated growth, antiestrogen alone / E2-stimulated growth, antiestrogen plus VPA: 100 pM E2, 7 days, fulvestrant at higher concentrations; for E2-stimulated growth, antiestrogen plus VPA: plus 750 μM VPA; for effect of HDAC inhibitor on antiproliferative action of tamoxifen: range of HDAC inhibitor doses with 10 nM OH-Tam
Excerpt: as §2, §3

MCF-7aro cells = assay: Cell proliferation assay in MCF-7 cells with stably expressed aromatase; assay type: cell-based, human; conditions: 5 days
Excerpt: as §2, with “Cells were treated with ligands in media containing 2-5% stripped PBS for the indicated times.” left out
as §3, with “Cells growing in 24-well dishes were treated with ligands in triplicate for the indicated times.” left out

MCF-7/HER2 cells = assay: Cell proliferation assay in MCF-7 cells overexpressing HER2/neu; assay type: cell-based, human; conditions: 10 pM E2, 750 μM VPA and/or 10 nM OH-Tam, 7 days
Excerpt: as §2, with “Cells were treated with ligands in media containing 2-5% stripped PBS for the indicated times.” left out
as §3, with “Cells growing in 24-well dishes were treated with ligands in triplicate for the indicated times.” left out

cyclin D1 = assay: Immunoblotting of cyclin D1 protein in MCF-7 cells; assay type: cell-based, human; conditions: 72 hours
Protocol: as §1
(§4) Changes in protein expression from endogenous genes in MCF-7 cells treated for 72 hours with ligands was also evaluated.

MCF-7 cells [4] = assay: Flow cytometry cell cycle distribution (DNA content); assay type: cell-based, human; conditions: 48 hours
Protocol: Flow cytometry. MCF-7 cells growing in 100 mm dishes were treated with ligands for 48 hours, then trypsinized and fixed in 70% ethanol and stained with […] propidium iodide (Roche, Nutley, N.J.). DNA content was obtained by measuring 10,000 events on a FACScalibur flow cytometer (BD Biosciences, San Jose, Calif.). The percentages of cells in each phase of the cell cycle were determined using the Watson (Pragmatic) model analyzed by FlowJo flow cytometry software (Treestar, San Carlos, Calif.).

MCF-7 cells [5] = assay: Phase microscopy of cell number and morphology; assay type: cell-based, human; conditions: 6 days, 100 pM E2, 750 μM VPA, 10 nM OH-Tam
ERα = assay: Immunoblotting of ERα protein in MCF-7 cells; assay type: cell-based, human; conditions: 72 hours
Protocol: as §1, §4

MCF-7 cells [6] = assay: Annexin V apoptosis assay; assay type: cell-based, human; conditions: 72 hours, absence of E2
Protocol: Apoptosis. MCF-7 cells growing on coverslips were treated with ligands for 72 hours and unfixed cells were assayed with the Annexin-V-FLOUS Staining kit (Roche), according to manufacturer's instructions. Total cell number was determined by counting nuclei stained with Hoescht 33342 (Roche). Fluorescence was analyzed using a Zeiss Axioplan fluorescent microscope (Zeiss, Thomwood, N.Y.).

Compound: C[C@]12CC[C@@H]3c4ccc(O)cc4CC[C@H]3[C@@H]1CC[C@@H]2O [E2, 17β-estradiol]
Bcl-2 protein expression (Bcl-2): upregulated
stimulation of ERE-Luc transcription ([1]; 100 pM E2, 24 hours): approximately 13 fold
cell numbers / proliferation [2]: increase was observed in cell numbers

Compound: O=C(c1ccc(OCCN2CCCCC2)cc1)c1c(-c2ccc(O)cc2)sc2cc(O)ccc12 [Raloxifene, raloxifene]
E2-stimulated growth, antiestrogen alone (MCF-7 cells [3]): substantially decreased E2-stimulated growth
E2-stimulated growth, antiestrogen plus VPA (MCF-7 cells [3]): VPA further enhanced its inhibitory effect

ERE-Luc transcription ([1]; high concentrations, alone): induced transcription
Compound: CC(/C=C/C(=O)NO)=C\[C@@H](C)C(=O)c1ccc(N(C)C)cc1 [TSA, trichostatin A]
IC50 (MCF-7 cells [3]; 100 pM E2, day 7, read-out: IC50 (cell proliferation), HDAC inhibitor alone): 0.051 µM
effect of HDAC inhibitor on antiproliferative action of tamoxifen (MCF-7 cells [3]; 100 pM E2, day 7): enhanced the antiproliferative action of tamoxifen
IC50 (MCF-7 cells [3]; read-out: IC50 (cell proliferation), co-treatment with tamoxifen, with 10 nM OH-Tam, 100 pM E2, day 7): 0.032 µM

ERE-Luc transcription ([1]; high concentrations, alone): induced transcription
Compound: CCCC(CCC)C(=O)O [VPA, valproic acid sodium salt (sodium 2-propylpentanoate)]
Bcl-2 protein expression (Bcl-2): did not have any effect on Bcl-2 expression either alone or with tamoxifen
testosterone-induced proliferation, VPA with letrozole (MCF-7aro cells; 750 μM VPA, regardless of the letrozole dose tested): inhibited proliferation more than that observed with letrozole alone
E2-induced cell proliferation (MCF-7 cells [3]; 750 μM VPA, 10 nM OH-Tam, 6-7 days, counted electronically): inhibition by VPA was even more dramatic
effect of VPA on tamoxifen inhibition of cell proliferation (MCF-7 cells [3]; 750 μM VPA, OH-Tam 0 to 500 nM, 100 pM E2, day 6): enhanced the relative efficacy of tamoxifen at all doses tested
cell proliferation (MCF-7 cells [3]; 750 μM VPA, without E2, 6-7 days, counted electronically): inhibited MCF 7 cells
inhibition at 750 µM (MCF-7 cells [3]; Homo sapiens, MCF7, 144 h, 750 μM VPA alone, 100 pM E2, day 6, fluorescent DNA-binding assay, read-out: inhibition of E2-stimulated cell proliferation): 25%
IC50 (MCF-7 cells [3]; Homo sapiens, MCF7, 168 h, 100 pM E2, day 7, doses of VPA ranging from 50 μM to 5 M, read-out: IC50 (cell proliferation), HDAC inhibitor alone): 800 µM
IC50 (MCF-7 cells [3]; Homo sapiens, MCF7, 168 h, read-out: IC50 (cell proliferation), tamoxifen co-treatment, with 10 nM OH-Tam, 100 pM E2, day 7): 500 µM
slowing of breast cancer cell growth in combination (MCF-7 cells [3]; VPA 750 μM with rapamycin 0.05 nM, picropodophyllin 100 nM, tamoxifen 100 nM): combines effectively
slowing of breast cancer cell growth in combination (MCF-7 cells [3]; VPA 750 μM with rapamycin […], gefitinib 1 μM, with and without tamoxifen 100 nM): combines effectively
effect of HDAC inhibitor on antiproliferative action of tamoxifen (MCF-7 cells [3]; 100 pM E2, day 7): enhanced the action of tamoxifen
ERE-Luc transcription ([1]; 750 μM VPA, alone or with 10 nM OH-Tam): unable to activate transcription alone or in the presence of tamoxifen
E2-induced ERE-Luc transcriptional activity ([1]; high dose of VPA alone, in the presence of E2): inhibited E2-induced transcriptional activity
effect of VPA on E2- and tamoxifen-induced proliferation [2]: equally antagonized the proliferative effect of E2 and tamoxifen
cell numbers / proliferation [2]: dramatically inhibited proliferation
cell proliferation (MCF-7/HER2 cells): inhibited by VPA
cyclin D1 expression (cyclin D1): did not alter cyclin D1 expression
addition of VPA to tamoxifen on E2-induced cell cycle progression (MCF-7 cells [4]; E2 present): did not yield a detectable change
cell cycle distribution (MCF-7 cells [4]; E2 present): had no effect
cell cycle distribution (MCF-7 cells [4]; absence of E2): induced a small arrest in the G1 phase
cell number and morphology by phase microscopy (MCF-7 cells [5]): fewer cells as well as an increased number of floating cells
ERα protein expression (ERα; only observed in the absence of E2): slightly downregulated ERα protein expression
increased ERα expression seen with tamoxifen treatment (ERα; VPA with tamoxifen, absence of E2): attenuated the increased ERα expression
AnnexinV positive cells (apoptotic index), % of total cell population (MCF-7 cells [6]): approximately 1.37%

Compound: NC(=O)N1c2ccccc2C=Cc2ccccc21 [carbamazepine]
slowing of breast cancer cell growth in combination (MCF-7 cells [3]; carbamazepine 50 μM with rapamycin 2 nM, picropodophyllin 100 nM, tamoxifen 10 nM): combines effectively

Compound: C[C@]12CC[C@@H]3c4ccc(O)cc4C[C@@H](CCCCCCCCC[S+]([O-])CCCC(F)(F)C(F)(F)F)[C@H]3[C@@H]1CC[C@@H]2O (stereo partly drawn) [fulvestrant, Fulvestrant]
E2-stimulated growth, antiestrogen alone (MCF-7 cells [3]): decreased E2-induced proliferation
E2-stimulated growth, sub-saturating fulvestrant plus VPA (MCF-7 cells [3]; fulvestrant 1 to 5 nM plus VPA): VPA enhanced the anti-proliferative effect of lower doses of fulvestrant in a dose responsive manner
E2-stimulated growth, antiestrogen plus VPA (MCF-7 cells [3]): VPA did not further add to its inhibitory effect

Compound: N#Cc1ccc(C(c2ccc(C#N)cc2)n2cncn2)cc1 [letrozole]
testosterone-induced proliferation (MCF-7aro cells; 1 nM testosterone): inhibited testosterone-induced proliferation in a dose responsive manner
